In patent US8420657B2 (Novartis AG, priority 2008, dated 2013):

Legend:
[1] = test system: JAK1/JAK2-dependent nuclear translocation of STAT1-GFP in HT1080 fibrosarcoma cells; assay: STAT1 nuclear translocation assay (Cellomics), IFN-γ stimulated HT1080 STAT1-GFP cells; assay type: cell-based
How it was run: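 IC50 derived from percent nuclear STAT1-GFP translocation, computed from nuclear minus cytoplasmic GFP intensity against untreated baseline and DMSO-stimulated control. Stable HT1080 STAT1-GFP cells received compound (0.003–10 μM, 0.1% DMSO) 30 min ahead of a 2 h 100 ng/ml IFN-γ stimulus, then fixation and Hoechst nuclear masking.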

GST-JAK2(808-1132) = target: T1, GST-JAK2(808-1132) (Homo sapiens, UniProt O60674); assay: JAK2 kinase assay (Caliper mobility shift, LabChip 3000); assay type: biochemical
T1 construct: GST-JAK2(808-1132); purchased Invitrogen (Carlsbad, USA) #4288
T1 sequence (O60674 808-1132): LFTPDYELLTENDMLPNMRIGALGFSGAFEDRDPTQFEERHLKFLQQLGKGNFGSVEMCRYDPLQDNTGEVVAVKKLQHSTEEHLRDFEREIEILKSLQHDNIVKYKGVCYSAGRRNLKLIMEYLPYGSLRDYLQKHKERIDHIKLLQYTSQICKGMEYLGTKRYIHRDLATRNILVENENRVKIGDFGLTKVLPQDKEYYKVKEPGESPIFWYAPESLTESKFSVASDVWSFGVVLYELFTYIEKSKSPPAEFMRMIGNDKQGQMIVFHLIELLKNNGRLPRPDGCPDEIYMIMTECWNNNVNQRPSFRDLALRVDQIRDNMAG
How it was run: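 Eight-point compound series (final 10–0.003 μM) tested on purchased GST-JAK2 kinase domain (808-1132). Peptide FITC-JAK3tide plus ATP reacted 60 min, 30 °C, then quenched with EDTA; turnover from charge-based separation of substrate and product.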

[2] = Homo sapiens, HT-1080, STAT1 translocation pathway

IC50 [1, 2] [nM] | IC50 (GST-JAK2(808-1132)) [nM] | IC50 ([1]; STAT1 translocation pathway) [nM] | SMILES
3110 | 4.4 |  | COCc1ccc(Nc2ncc3ccn(-c4ccc(S(C)(=O)=O)cc4)c3n2)cc1 [Example 54, [7-(4-Methanesulfonyl-phenyl)-7H-pyrrolo[2,3-d]pyrimidin-2-yl]-(4-methoxymethyl-phenyl)-amine]
75.5 | < 3 |  | Cc1cc(Nc2ncc3ccn(-c4ccc(S(C)(=O)=O)cc4)c3n2)ccc1C(=O)N1CCOCC1 [Example 74, {4-[7-(4-Methanesulfonyl-phenyl)-7H-pyrrolo[2,3-d]pyrimidin-2-ylamino]-2-methyl-phenyl}-morpholin-4-yl-methanone]
573 | 7.1 |  | CC(=O)N1CCN(Cc2c(F)cc(-n3ccc4cnc(Nc5ccc(F)c(C)c5)nc43)cc2F)CC1 [Example 133, 1-(4-{2,6-Difluoro-4-[2-(4-fluoro-3-methyl-phenylamino)-pyrrolo[2,3-d]pyrimidin-7-yl]-benzyl}-piperazin-1-yl)-ethanone]
362 | 6.8 |  | CN1CCN(C(=O)c2ccc(Nc3ncc4ccn(-c5ccc(S(C)(=O)=O)cc5)c4n3)cc2F)CC1 [Example 71, {2-Fluoro-4-[7-(4-methanesulfonyl-phenyl)-7H-pyrrolo[2,3-d]pyrimidin-2-ylamino]-phenyl}-(4-methyl-piperazin-1-yl)-methanone]
910 | 8.1 |  | COc1ccc(Nc2ncc3ccn(-c4ccc(C(=O)N5CCOCC5)cc4)c3n2)cn1 [Example 234, {4-[2-(6-Methoxy-pyridin-3-ylamino)-pyrrolo[2,3-d]pyrimidin-7-yl]-phenyl}-morpholin-4-yl-methanone]
255 | 3.7 |  | Cn1cc(Nc2ncc3ccn(-c4cc(F)c(CN5CCOCC5)c(F)c4)c3n2)cn1 [Example 247, [7-(3,5-Difluoro-4-morpholin-4-ylmethyl-phenyl)-7H-pyrrolo[2,3-d]pyrimidin-2-yl]-(1-methyl-1H-pyrazol-4-yl)-amine]
775 | 11 |  | N#Cc1ccc(Nc2ncc3ccn(-c4cc(F)c(CN5CCOCC5)c(F)c4)c3n2)cc1 [Example 136, 4-[7-(3,5-Difluoro-4-morpholin-4-ylmethyl-phenyl)-7H-pyrrolo[2,3-d]pyrimidin-2-ylamino]-benzonitrile]
145 | 3.4 |  | Cc1ccc(Nc2ncc3ccn(-c4ccc(CC(=O)N5CCOCC5)cc4)c3n2)cc1C [Example 166, 2-{4-[2-(3,4-Dimethyl-phenylamino)-pyrrolo[2,3-d]pyrimidin-7-yl]-phenyl}-1-morpholin-4-yl-ethanone]
465 | 10 |  | C[C@@H]1CN[C@@H](C)CN1c1ccc(Nc2ncc3ccn(-c4cc(F)c(C(=O)N5CCOCC5)c(F)c4)c3n2)cn1 (racemic) [Example 269, (4-{2-[6-((2R,5S)-2,5-Dimethyl-piperazin-1-yl)-pyridin-3-ylamino]-pyrrolo[2,3-d]pyrimidin-7-yl}-2,6-difluoro-phenyl)-morpholin-4-yl-methanone]
95 | < 3 |  | CN1CCN(C(=O)c2ccc(Nc3ncc4ccn(-c5cc(F)c(CN6CCS(=O)(=O)CC6)c(F)c5)c4n3)cc2C(F)(F)F)CC1 [Example 186, (4-{7-[4-(1,1-Dioxido-thiomorpholin-4-ylmethyl)-3,5-difluoro-phenyl]-7H-pyrrolo[2,3-d]pyrimidin-2-ylamino}-2-trifluoromethyl-phenyl)-(4-methyl-piperazin-1-yl)-methanone]
 | < 3 | 410 | Cc1cc(Nc2ncc3ccn(-c4cc(F)c(C(=O)N5CCOCC5)c(F)c4)c3n2)ccc1F [Example 89, {2,6-Difluoro-4-[2-(4-fluoro-3-methyl-phenylamino)-pyrrolo[2,3-d]pyrimidin-7-yl]-phenyl}-morpholin-4-yl-methanone]
95 | 3.3 |  | O=S1(=O)CCN(Cc2c(F)cc(-n3ccc4cnc(Nc5ccncc5)nc43)cc2F)CC1 [Example 183, {7-[4-(1,1-Dioxido-thiomorpholin-4-ylmethyl)-3,5-difluoro-phenyl]-7H-pyrrolo[2,3-d]pyrimidin-2-yl}-pyridin-4-yl-amine]
168 | 3.5 |  | Cc1ccc(Nc2ncc3ccn(-c4ccc(C(=O)N5CCOCC5)c(F)c4)c3n2)cc1C [Example 152, {4-[2-(3,4-Dimethyl-phenylamino)-pyrrolo[2,3-d]pyrimidin-7-yl]-2-fluoro-phenyl}-morpholin-4-yl-methanone]
545 | 29 |  | CCN1CCCC1CNC(=O)c1cc(Nc2ncc3ccn(-c4ccc(S(C)(=O)=O)cc4)c3n2)ccc1F (centres unmarked) [Example 78, N-(1-Ethyl-pyrrolidin-2-ylmethyl)-2-fluoro-5-[7-(4-methanesulfonyl-phenyl)-7H-pyrrolo[2,3-d]pyrimidin-2-ylamino]-benzamide]
575 | 5.6 |  | CC(C)Oc1ccc(Nc2ncc3ccn(-c4ccc(C(=O)N5CCOCC5)c(F)c4)c3n2)cc1 [Example 98, {2-Fluoro-4-[2-(4-isopropoxy-phenylamino)-pyrrolo[2,3-d]pyrimidin-7-yl]-phenyl}-morpholin-4-yl-methanone]
184 | < 3 |  | CN(C)CCNC(=O)c1cccc(Nc2ncc3ccn(-c4ccc(S(C)(=O)=O)cc4)c3n2)c1 [Example 50, N-(2-Dimethylamino-ethyl)-3-[7-(4-methanesulfonyl-phenyl)-7H-pyrrolo[2,3-d]pyrimidin-2-ylamino]-benzamide]
80 | < 3 |  | O=C1CN(Cc2ccc(Nc3ncc4ccn(-c5cc(F)c(CN6CCOCC6)c(F)c5)c4n3)cc2)CCN1 [Example 258, 4-{4-[7-(3,5-Difluoro-4-morpholin-4-ylmethyl-phenyl)-7H-pyrrolo[2,3-d]pyrimidin-2-ylamino]-benzyl}-piperazin-2-one]
295 | 4.9 |  | COc1cc(Nc2ncc3ccn(-c4ccc(C(=O)N5CCOCC5)c(F)c4)c3n2)ccc1C [Example 303, {2-Fluoro-4-[2-(3-methoxy-4-methyl-phenylamino)-pyrrolo[2,3-d]pyrimidin-7-yl]-phenyl}-morpholin-4-yl-methanone]
105 | < 3 |  | CCN1CCCC1CNC(=O)c1ccc(Nc2ncc3ccn(-c4ccc(S(C)(=O)=O)cc4)c3n2)cc1 (centres unmarked) [Example 68, N-(1-Ethyl-pyrrolidin-2-ylmethyl)-4-[7-(4-methanesulfonyl-phenyl)-7H-pyrrolo[2,3-d]pyrimidin-2-ylamino]-benzamide]
439 | 5.2 |  | CN1CCN(C(=O)c2c(F)cc(-n3ccc4cnc(Nc5ccc(CN6CCS(=O)(=O)CC6)cc5)nc43)cc2F)CC1 [Example 190, (4-{2-[4-(1,1-Dioxido-thiomorpholin-4-ylmethyl)-phenylamino]-pyrrolo[2,3-d]pyrimidin-7-yl}-2,6-difluoro-phenyl)-(4-methyl-piperazin-1-yl)-methanone]
920 | 6.5 |  | O=C(c1ccc(-n2ccc3cnc(Nc4ccc(F)cc4)nc32)cc1F)N1CCOCC1 [Example 59, {2-Fluoro-4-[2-(4-fluoro-phenylamino)-pyrrolo[2,3-d]pyrimidin-7-yl]-phenyl}-morpholin-4-yl-methanone]
35 | 4.3 |  | Fc1cc(-n2ccc3cnc(Nc4ccc(N5CCNC6(CC6)C5)nc4)nc32)cc(F)c1CN1CCOCC1 [Example 270, [6-(4,7-Diaza-spiro[2.5]oct-7-yl)-pyridin-3-yl]-[7-(3,5-difluoro-4-morpholin-4-ylmethyl-phenyl)-7H-pyrrolo[2,3-d]pyrimidin-2-yl]-amine]
60 | < 3 |  | CCN1CCN(Cc2ccc(Nc3ncc4ccn(-c5cc(F)c(CN6CCS(=O)(=O)CC6)c(F)c5)c4n3)cc2)CC1 [Example 188, {7-[4-(1,1-Dioxido-thiomorpholin-4-ylmethyl)-3,5-difluoro-phenyl]-7H-pyrrolo[2,3-d]pyrimidin-2-yl}-[4-(4-ethyl-piperazin-1-ylmethyl)-phenyl]-amine]
108 | 4.2 |  | CC(C)Oc1ccc(Nc2ncc3ccn(-c4ccc(CN5CCS(=O)(=O)CC5)c(Cl)c4)c3n2)cc1 [Example 113, {7-[3-Chloro-4-(1,1-dioxido-thiomorpholin-4-ylmethyl)-phenyl]-7H-pyrrolo[2,3-d]pyrimidin-2-yl}-(4-isopropoxy-phenyl)-amine]
46 | < 3 |  | COc1ccc(Nc2ncc3ccn(-c4ccc(S(C)(=O)=O)cc4)c3n2)cc1OCCN1CCCC1 [Example 31, [7-(4-Methanesulfonyl-phenyl)-7H-pyrrolo[2,3-d]pyrimidin-2-yl]-[4-methoxy-3-(2-pyrrolidin-1-yl-ethoxy)-phenyl]-amine]
5390 | 180 |  | O=C(NCCN1CCOCC1)c1ccc(-n2ccc3cnc(Nc4ccc(F)cc4)nc32)cc1 [Example 62, 4-[2-(4-Fluoro-phenylamino)-pyrrolo[2,3-d]pyrimidin-7-yl]-N-(2-morpholin-4-yl-ethyl)-benzamide]
750 | 3.7 |  | CN1CCN(C(=O)c2ccc(Nc3ncc4ccn(-c5ccc(S(C)(=O)=O)cc5)c4n3)cc2C(F)(F)F)CC1 [Example 72, {4-[7-(4-Methanesulfonyl-phenyl)-7H-pyrrolo[2,3-d]pyrimidin-2-ylamino]-2-trifluoromethyl-phenyl}-(4-methyl-piperazin-1-yl)-methanone]

SMILES | IC50 [1, 2] [nM] | IC50 (GST-JAK2(808-1132)) [nM] | IC50 ([1]; STAT1 translocation pathway) [nM]
CN1CCN(C(=O)Cc2cccc(Nc3ncc4ccn(-c5ccc(S(C)(=O)=O)cc5)c4n3)c2)CC1 [Example 70, 2-{3-[7-(4-Methanesulfonyl-phenyl)-7H-pyrrolo[2,3-d]pyrimidin-2-ylamino]-phenyl}-1-(4-methyl-piperazin-1-yl)-ethanone] | 275 | 5.6 | 
